Data: patent US20210269483A1, “PEPTIDE COMPOUNDS” (ULTUPHARMA AB, priority 2018, published 2021)
≈ marks a conversion by molar mass, not a printed value. Read-outs that look alike come from different tables or passages of the source. Starred links: 1 amine or outer side, 2 acyl side, 3 side chain; linkers in the order of their positions; H or OH if unused. Positions of bridges follow the written chain, without caps; N, C: chain ends. Non-standard residues stand in square brackets, D forms with d. Residues, ends and D or L forms follow the SMILES beside them. X2 = CCCCCCC[C@H](CC(=O)[*:1])O[*:2]; Val(3-OH) = CC(C)(O)[C@H](N)C(=O)O; X1 = C/C=C(/N[*:1])C(=O)[*:2]; Dab = NCC[C@H](N)C(=O)O; Dap = NC[C@H](N)C(=O)O

Tests used:
[1] = test system: carbapenem resistant strains of E. coil, P. aeruginosa and A. baumannii; assay type: cell-based
From the text: (§1) 2015. M7-A10. Methods for dilution antimicrobial susceptibility tests for bacteria that grow aerobically, 10th ed. Approved standard. CLSI, Wayne, Pa.).

A. baumannii [2] = assay type: cell-based, Acinetobacter baumannii
From the text: as §1
(§2) A) In the broth micro-dilution method, the test media were either AM3 Broth (BD Difco Ltd) mixed with phosphate buffered saline (PBS, Amresco LLC, Solon, USA) in 1:4 ratio (E. colt A. baumannii, Enterobacter cloacae, Klebsiella pneumonia and P. aeruginosa), AM3 Broth mixed with PBS in 1:1 ratio (S. aureus) or Malt Extract (ME; 15 g Malt Extract Dico Ltd. in 1000 mL deionized H2O; Aspergillus fumigatus). Prior to MIC-tests, the bacterial cell concentration/fungal spore concentration was adjusted to between 1 and 5×10^5 cells/spores per mL. […] Afterwards, suspensions of pathogen cells in the appropriate medium were dispensed to the wells of microtiter plates and the growth of pathogens were monitored after 16 to 20 h of incubation at 37° C. in the dark. Positive control comprised respective pathogen cells suspended in untreated sterile appropriate media without addition of compounds(s) and negative control comprised the medium only. The MIC was defined as the lowest concentration of each compound with no visible growth of pathogen. All MIC tests were performed in duplicate and/or triplicate and repeated at least twice.

P. aeruginosa [3] = assay type: cell-based, Pseudomonas aeruginosa; conditions: P. aeruginosa EN005, PAO750 (efflux-defective), method B
From the text: as §1

S. aureus [4] = assay type: cell-based, Staphylococcus aureus
From the text: as §1, §2

HepG2 = test system: HepG2
Description: (§3) IC50, haemolysis rate and frequency of resistance (FoR, Table 4) was determined using standard protocols by different CROs.

[5] = Description: as §3
E. coli [6] = assay type: cell-based, Escherichia coli
From the text: as §1, §2

S. aureus [7] = assay type: cell-based, Staphylococcus aureus; remark: listed apart in the source
From the text: as §1

A. baumannii [8] = assay type: cell-based, Acinetobacter baumannii; remark: listed apart in the source
From the text: as §1

K. pneumoniae [9] = assay type: cell-based, Klebsiella pneumonia; conditions: K. pneumoniae EN011, 1161486a (efflux-defective), method B
From the text: as §1

K. pneumoniae [10] = assay type: cell-based, Klebsiella pneumonia
From the text: as §1, §2

As. fumigatus = assay type: cell-based, Aspergillus fumigatus
From the text: as §1, §2

P. aeruginosa [11] = assay type: cell-based, Pseudomonas aeruginosa
From the text: as §1, §2

E. cloacae = assay type: cell-based, Enterobacter cloacae
From the text: as §1, §2

E. coli [12] = assay type: cell-based, Escherichia coli; conditions: E. coli EN003, D22 (lps mutant, hypersensitive), method B
From the text: as §1

**Q.** Which “MICs against carbapenem resistant strains, highest” value [1] does the source give for `C/C=C1/NC(=O)[C@H](CCN)NC(=O)[C@H](CC(C)C)NC(=O)[C@H](CN)NC(=O)C[C@@H](CCCCCCC)OC(=O)[C@H](CC(=O)O)NC(=O)[C@H](C(C)(C)O)NC(=O)[C@@H](Cc2ccccc2)NC(=O)[C@H](CN)NC(=O)[C@H]([C@@H](C)O)NC1=O` [U747, cyclo-((R)-3-hydroxydecanoyl-L-DAPA-L-Leu-L-DABA-(E)-ABA-L-Thr-L-DAPA-D-Phe-L-OHVal-L-Asp)] ([Dap]L[Dab][X1]T[Dap][dF][Val(3-OH)]D; linker N-C via X2) here?
**A.** 2 to 4 µg/mL

**Q.** And the “MICs against carbapenem resistant strains, lowest” value [1]?
**A.** 0.5 to 1 µg/mL

**Q.** What about the MIC (A. baumannii [2]) of the same molecule?
**A.** 1 to 2 µg/mL

**Q.** And the “MIC A. baumannii LMG1041T” value (A. baumannii [2])?
**A.** 1 µg/mL (≈ 0.895 µM)

**Q.** What about the MIC (P. aeruginosa [3]) of the same molecule?
**A.** 32 µg/mL (≈ 28.6 µM)

**Q.** What about the MIC (S. aureus [4]) of the same molecule?
**A.** >32 µg/mL

**Q.** And the “MIC S. aureus LMG15975” value (S. aureus [4])?
**A.** >32 µg/mL

**Q.** And the “IC50 (HepG2)” value (HepG2)?
**A.** 50 µg/mL (≈ 44.8 µM)

**Q.** What about the “toxicity (IC50) against human cell lines” value (HepG2) of the same molecule?
**A.** low toxicity

**Q.** What about the Haemolysis rate ([5]; 100 μM) of the same molecule?
**A.** 0.6%

**Q.** What about the haemolysis rates ([5]; in words) of the same molecule?
**A.** acceptable

**Q.** And the MIC (E. coli [6])?
**A.** 2 to 4 µg/mL

**Q.** What about the “MIC E. coli LMG15862” value (E. coli [6]) of the same molecule?
**A.** 2 µg/mL (≈ 1.79 µM)

**Q.** And the MIC (S. aureus [7])?
**A.** 64 µg/mL (≈ 57.3 µM)

**Q.** What about the MIC (A. baumannii [8]) of the same molecule?
**A.** 1 to 2 µg/mL

**Q.** What about the MIC (A. baumannii [8]; A. baumanii EN007, WT, method B) of the same molecule?
**A.** 8 µg/mL (≈ 7.16 µM)

**Q.** And the MIC (A. baumannii [8]; A. baumanii EN016, BM4454 8, method B)?
**A.** 8 µg/mL (≈ 7.16 µM)

**Q.** And the MIC (A. baumannii [8]; A. baumanii EN017, BM4652 (efflux-defective), method B)?
**A.** 8 µg/mL (≈ 7.16 µM)

**Q.** And the MIC (K. pneumoniae [9])?
**A.** 8 µg/mL (≈ 7.16 µM)

**Q.** What about the MIC (K. pneumoniae [10]) of the same molecule?
**A.** 2 to 4 µg/mL

**Q.** And the “MIC K. pneumonia LMG20218” value (K. pneumoniae [10])?
**A.** 2 µg/mL (≈ 1.79 µM)

**Q.** And the MIC (As. fumigatus)?
**A.** 16 to 32 µg/mL

**Q.** What about the MIC (P. aeruginosa [11]) of the same molecule?
**A.** 8 to 16 µg/mL

**Q.** What about the “MIC P. aeruginosa LMG6395” value (P. aeruginosa [11]) of the same molecule?
**A.** 8 µg/mL (≈ 7.16 µM)

**Q.** And the MIC (E. cloacae)?
**A.** 2 to 4 µg/mL

**Q.** What about the “MIC E. cloacae LMG2783T” value (E. cloacae) of the same molecule?
**A.** 2 µg/mL (≈ 1.79 µM)

**Q.** And the MIC (E. coli [12])?
**A.** 4 µg/mL (≈ 3.58 µM)
